Assay results reported in patent US20190119193A1, “COMPOSITION FOR REGULATING PLANT GROWTH, METHOD FOR TREATING PLANTS THEREWITH, AND ACTIVE INGREDIENT THEREOF” (Ivan Aleksandrovich Starikov, priority 2016, published 2019).

What was measured:
Format in all cases: in vivo
Conditions in all cases: for Germinative energy: day 3; for Germinative capacity / Number of lateral roots / Sprout height / Taproot length: day 7
[1] = system: tomato seeds (“Volgogradets” variety); test: Laboratory tests of DMOA and DEOA for tomato seeds
Procedure: (§1) After that DMOA and DEOA were dissolved in dimethyl sulfoxide to give solutions of 10 g/L concentration, then water was added to give aqueous solutions of DMOA with concentrations of 5.5·10^−5 M, 5.5·10^−6 M, 5.5·10^−7 M, 5.5·10^−8 M, 5.5·10^−9 M and DEOA with concentrations of 4.8·10^−5 M, 4.8·10^−6 M, 4.8·10^−7 M, 4.8·10^−8 M, 4.8·10^−9 M.
(§2) The obtained aqueous solutions of DMOA and DEOA were tested in the Scientific Center of Soil-Ecological Reasearch of the Federal State-Funded Educational Institution of Higher Education “Russian State Agrarian University—Moscow Agricultural Academy named after K. A. Timiryazev” (Moscow, 2015) according to the method described by T. A. Sergeeva (Method of laboratory testing of herbicides, Plant protection, 1963, No. 2, pp. 42-43). The primary laboratory screening of DMOA and DEOA was carried out on the seeds of five different crops: sunflower of “Voronezh 638” variety, soybean of “Vilana” variety, alfalfa of “Vega” variety, cucumber of “Nezhinsky” variety and tomato of “Volgogradets” variety.
(§3) Water was used as a reference.
(§4) A single experiment was carried out in a Petri dish. A circle of filter paper was laid at the bottom of the dish and treated with 5 ml of the work solution selected for the experiment. After that 25 seeds were uniformly laid on the surface of the treated filter paper. The Petri dish was kept at a temperature of 21-23° C. with illumination by fluorescent lamps for 7 days. The fourfold replication of the experiment within a single variant was applied.
(§5) The experiment identified the number and percentage of normally germinated seeds on day 3 (germinative energy) and on day 7 (germinative capacity) after the beginning of the experiment. On day 7 the main biometric parameters were also measured: sprout height (mm), taproot length (mm) and number of lateral roots (pcs).
(§6) The results were processed with the method of variance analysis with the help of STRAZ software in order to get the LSD0.05 (least significant difference between the test results on 5% significance level).

[2] = system: sunflower seeds (“Voronezh 638” variety); test: Laboratory tests of DMOA and DEOA for sunflower seeds
Procedure: as §1, §2, §3, §4, §5, §6

[3] = system: soybean seeds (“Vilana” variety); test: Laboratory tests of DMOA and DEOA for soybean seeds
Procedure: as §1, §2, §3, §4, §5, §6

[4] = system: cucumber seeds (“Nezhinsky” variety); test: Laboratory tests of DMOA and DEOA for cucumber seeds
Procedure: as §1, §2, §3, §4, §5, §6

**Q.** How did the Germinative energy ([1]; 4.8 · 10^−5 M) turn out when `CCOC(=O)C=C([O-])C(=O)OCC.[Na+]` [DEOA, sodium salt of diethyl ester of oxaloacetic acid] was run?
**A.** 93%

**Q.** And the Germinative capacity ([1]; 4.8 · 10^−5 M)?
**A.** 95%

**Q.** What about the “Number of lateral roots” value ([1]; 4.8 · 10^−5 M) of the same compound?
**A.** 0.5 ↑ pcs.

**Q.** And the Sprout height ([1]; 4.8 · 10^−5 M)?
**A.** 25.3 mm

**Q.** What about the Taproot length ([1]; 4.8 · 10^−5 M) of the same compound?
**A.** 80.1 mm

**Q.** And the Germinative energy ([1]; 4.8 · 10^−6 M)?
**A.** 75%

**Q.** And the Germinative capacity ([1]; 4.8 · 10^−6 M)?
**A.** 80%

**Q.** And the “Number of lateral roots” value ([1]; 4.8 · 10^−6 M)?
**A.** 0.2 pcs.

**Q.** And the Sprout height ([1]; 4.8 · 10^−6 M)?
**A.** 25.7 mm

**Q.** And the Taproot length ([1]; 4.8 · 10^−6 M)?
**A.** 77.7 mm

**Q.** What about the Germinative energy ([1]; 4.8 · 10^−7 M) of the same compound?
**A.** 88%

**Q.** And the Germinative capacity ([1]; 4.8 · 10^−7 M)?
**A.** 91%

**Q.** And the “Number of lateral roots” value ([1]; 4.8 · 10^−7 M)?
**A.** 0.4 pcs.

**Q.** What about the Sprout height ([1]; 4.8 · 10^−7 M) of the same compound?
**A.** 26.3 mm

**Q.** And the Taproot length ([1]; 4.8 · 10^−7 M)?
**A.** 84.6 ↑ mm

**Q.** What about the Germinative energy ([1]; 4.8 · 10^−8 M) of the same compound?
**A.** 74%

**Q.** What about the Germinative capacity ([1]; 4.8 · 10^−8 M) of the same compound?
**A.** 76%

**Q.** What about the “Number of lateral roots” value ([1]; 4.8 · 10^−8 M) of the same compound?
**A.** 0.2 pcs.

**Q.** And the Sprout height ([1]; 4.8 · 10^−8 M)?
**A.** 22.7 mm

**Q.** What about the Taproot length ([1]; 4.8 · 10^−8 M) of the same compound?
**A.** 77.9 mm

**Q.** What about the Germinative energy ([1]; 4.8 · 10^−9 M) of the same compound?
**A.** 82%

**Q.** And the Germinative capacity ([1]; 4.8 · 10^−9 M)?
**A.** 89%

**Q.** And the “Number of lateral roots” value ([1]; 4.8 · 10^−9 M)?
**A.** 0.4 pcs.

**Q.** What about the Sprout height ([1]; 4.8 · 10^−9 M) of the same compound?
**A.** 21.3 ↓ mm

**Q.** And the Taproot length ([1]; 4.8 · 10^−9 M)?
**A.** 77.9 mm

**Q.** And the Germinative energy ([2]; 4.8 · 10^−5 M)?
**A.** 87%

**Q.** And the Germinative capacity ([2]; 4.8 · 10^−5 M)?
**A.** 93%

**Q.** What about the “Number of lateral roots” value ([2]; 4.8 · 10^−5 M) of the same compound?
**A.** 9.6 pcs.

**Q.** What about the Sprout height ([2]; 4.8 · 10^−5 M) of the same compound?
**A.** 40.1 ↑↑↑↑↑ mm

**Q.** What about the Taproot length ([2]; 4.8 · 10^−5 M) of the same compound?
**A.** 38.4 mm

**Q.** What about the Germinative energy ([2]; 4.8 · 10^−6 M) of the same compound?
**A.** 80%

**Q.** And the Germinative capacity ([2]; 4.8 · 10^−6 M)?
**A.** 90%

**Q.** What about the “Number of lateral roots” value ([2]; 4.8 · 10^−6 M) of the same compound?
**A.** 8.9 pcs.

**Q.** And the Sprout height ([2]; 4.8 · 10^−6 M)?
**A.** 29.7 ↑↑ mm

**Q.** What about the Taproot length ([2]; 4.8 · 10^−6 M) of the same compound?
**A.** 44.0 mm

**Q.** And the Germinative energy ([2]; 4.8 · 10^−7 M)?
**A.** 93 ↑ %

**Q.** And the Germinative capacity ([2]; 4.8 · 10^−7 M)?
**A.** 93%

**Q.** And the “Number of lateral roots” value ([2]; 4.8 · 10^−7 M)?
**A.** 6.9 pcs.

**Q.** What about the Sprout height ([2]; 4.8 · 10^−7 M) of the same compound?
**A.** 29.2 ↑↑ mm

**Q.** What about the Taproot length ([2]; 4.8 · 10^−7 M) of the same compound?
**A.** 37.0 mm

**Q.** What about the Germinative energy ([2]; 4.8 · 10^−8 M) of the same compound?
**A.** 97 ↑ %

**Q.** And the Germinative capacity ([2]; 4.8 · 10^−8 M)?
**A.** 99 ↑ %

**Q.** What about the “Number of lateral roots” value ([2]; 4.8 · 10^−8 M) of the same compound?
**A.** 11.2 ↑ pcs.

**Q.** And the Sprout height ([2]; 4.8 · 10^−8 M)?
**A.** 27.7 ↑ mm

**Q.** And the Taproot length ([2]; 4.8 · 10^−8 M)?
**A.** 56.3 ↑↑ mm

**Q.** What about the Germinative energy ([2]; 4.8 · 10^−9 M) of the same compound?
**A.** 81%

**Q.** What about the Germinative capacity ([2]; 4.8 · 10^−9 M) of the same compound?
**A.** 87%

**Q.** And the “Number of lateral roots” value ([2]; 4.8 · 10^−9 M)?
**A.** 9.5 pcs.

**Q.** And the Sprout height ([2]; 4.8 · 10^−9 M)?
**A.** 30.5 ↑↑ mm

**Q.** And the Taproot length ([2]; 4.8 · 10^−9 M)?
**A.** 38.3 mm

**Q.** And the Germinative energy ([3]; 4.8 · 10^−5 M)?
**A.** 87 ↑ %

**Q.** What about the Germinative capacity ([3]; 4.8 · 10^−5 M) of the same compound?
**A.** 93%

**Q.** What about the “Number of lateral roots” value ([3]; 4.8 · 10^−5 M) of the same compound?
**A.** 0.3 pcs.

**Q.** And the Sprout height ([3]; 4.8 · 10^−5 M)?
**A.** 15.3 mm

**Q.** What about the Taproot length ([3]; 4.8 · 10^−5 M) of the same compound?
**A.** 45.3 ↑ mm

**Q.** And the Germinative energy ([3]; 4.8 · 10^−6 M)?
**A.** 75%

**Q.** And the Germinative capacity ([3]; 4.8 · 10^−6 M)?
**A.** 87%

**Q.** And the “Number of lateral roots” value ([3]; 4.8 · 10^−6 M)?
**A.** 0.6 pcs.

**Q.** What about the Sprout height ([3]; 4.8 · 10^−6 M) of the same compound?
**A.** 19.0 ↑ mm

**Q.** What about the Taproot length ([3]; 4.8 · 10^−6 M) of the same compound?
**A.** 37.7 mm

**Q.** What about the Germinative energy ([3]; 4.8 · 10^−7 M) of the same compound?
**A.** 72%

**Q.** And the Germinative capacity ([3]; 4.8 · 10^−7 M)?
**A.** 90%

**Q.** And the “Number of lateral roots” value ([3]; 4.8 · 10^−7 M)?
**A.** 0.3 pcs.

**Q.** And the Sprout height ([3]; 4.8 · 10^−7 M)?
**A.** 14.7 mm

**Q.** And the Taproot length ([3]; 4.8 · 10^−7 M)?
**A.** 36.2 mm

**Q.** What about the Germinative energy ([3]; 4.8 · 10^−8 M) of the same compound?
**A.** 73%

**Q.** What about the Germinative capacity ([3]; 4.8 · 10^−8 M) of the same compound?
**A.** 93%

**Q.** What about the “Number of lateral roots” value ([3]; 4.8 · 10^−8 M) of the same compound?
**A.** 0.4 pcs.

**Q.** And the Sprout height ([3]; 4.8 · 10^−8 M)?
**A.** 14.3 mm

**Q.** What about the Taproot length ([3]; 4.8 · 10^−8 M) of the same compound?
**A.** 33.6 mm

**Q.** And the Germinative energy ([3]; 4.8 · 10^−9 M)?
**A.** 80%

**Q.** What about the Germinative capacity ([3]; 4.8 · 10^−9 M) of the same compound?
**A.** 99 ↑ %

**Q.** What about the “Number of lateral roots” value ([3]; 4.8 · 10^−9 M) of the same compound?
**A.** 1.2 ↑↑ pcs.

**Q.** What about the Sprout height ([3]; 4.8 · 10^−9 M) of the same compound?
**A.** 17.1 mm

**Q.** And the Taproot length ([3]; 4.8 · 10^−9 M)?
**A.** 46.5 ↑ mm

**Q.** What about the Germinative energy ([4]; 4.8 · 10^−5 M) of the same compound?
**A.** 84%

**Q.** What about the Germinative capacity ([4]; 4.8 · 10^−5 M) of the same compound?
**A.** 88%

**Q.** What about the “Number of lateral roots” value ([4]; 4.8 · 10^−5 M) of the same compound?
**A.** 14.3 pcs.

**Q.** What about the Sprout height ([4]; 4.8 · 10^−5 M) of the same compound?
**A.** 27.8 ↑↑ mm

**Q.** And the Taproot length ([4]; 4.8 · 10^−5 M)?
**A.** 83.7 mm

**Q.** And the Germinative energy ([4]; 4.8 · 10^−6 M)?
**A.** 80%

**Q.** What about the Germinative capacity ([4]; 4.8 · 10^−6 M) of the same compound?
**A.** 85%

**Q.** What about the “Number of lateral roots” value ([4]; 4.8 · 10^−6 M) of the same compound?
**A.** 14.4 pcs.

**Q.** And the Sprout height ([4]; 4.8 · 10^−6 M)?
**A.** 22.2 mm

**Q.** What about the Taproot length ([4]; 4.8 · 10^−6 M) of the same compound?
**A.** 88.3 ↑ mm

**Q.** What about the Germinative energy ([4]; 4.8 · 10^−7 M) of the same compound?
**A.** 84%

**Q.** And the Germinative capacity ([4]; 4.8 · 10^−7 M)?
**A.** 88%

**Q.** And the “Number of lateral roots” value ([4]; 4.8 · 10^−7 M)?
**A.** 15.5 ↑ pcs.

**Q.** And the Sprout height ([4]; 4.8 · 10^−7 M)?
**A.** 22.3 mm

**Q.** And the Taproot length ([4]; 4.8 · 10^−7 M)?
**A.** 89.3 ↑ mm

**Q.** And the Germinative energy ([4]; 4.8 · 10^−8 M)?
**A.** 88%

**Q.** What about the Germinative capacity ([4]; 4.8 · 10^−8 M) of the same compound?
**A.** 95%

**Q.** And the “Number of lateral roots” value ([4]; 4.8 · 10^−8 M)?
**A.** 12.4 pcs.

**Q.** What about the Sprout height ([4]; 4.8 · 10^−8 M) of the same compound?
**A.** 19.3 mm

**Q.** And the Taproot length ([4]; 4.8 · 10^−8 M)?
**A.** 79.8 mm

**Q.** And the Germinative energy ([4]; 4.8 · 10^−9 M)?
**A.** 91%

**Q.** What about the Germinative capacity ([4]; 4.8 · 10^−9 M) of the same compound?
**A.** 93%

**Q.** And the “Number of lateral roots” value ([4]; 4.8 · 10^−9 M)?
**A.** 13.7 pcs.

**Q.** And the Sprout height ([4]; 4.8 · 10^−9 M)?
**A.** 21.6 mm

**Q.** And the Taproot length ([4]; 4.8 · 10^−9 M)?
**A.** 93.8 ↑↑ mm
